# Molecular target: T1, human NK3 receptor (Homo sapiens, UniProt P29371)
# T1 construct: expressed in transfected cells; host or cells: HEK293 cells (transient expression), membrane preparation
# T1 sequence (P29371 1-465): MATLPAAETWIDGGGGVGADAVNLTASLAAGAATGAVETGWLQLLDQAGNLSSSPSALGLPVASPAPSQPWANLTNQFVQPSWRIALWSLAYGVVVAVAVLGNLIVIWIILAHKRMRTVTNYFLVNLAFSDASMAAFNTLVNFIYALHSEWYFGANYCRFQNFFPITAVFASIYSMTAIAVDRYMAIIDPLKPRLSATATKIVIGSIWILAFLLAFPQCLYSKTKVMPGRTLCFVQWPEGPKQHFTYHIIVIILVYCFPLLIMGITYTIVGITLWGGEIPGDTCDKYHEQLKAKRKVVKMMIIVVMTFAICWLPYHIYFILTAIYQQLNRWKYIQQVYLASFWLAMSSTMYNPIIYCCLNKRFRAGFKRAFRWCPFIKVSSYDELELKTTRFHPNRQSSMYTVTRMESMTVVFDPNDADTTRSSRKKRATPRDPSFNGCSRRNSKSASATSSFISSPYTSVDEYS
# Assay: [3H]SR142801 competition binding assay (hNK3 receptor binding)
# Details: [3H]SR142801 radioligand; membranes from HEK293 cells transiently expressing recombinant human NK3 receptor; Ki by Cheng-Prussoff; read-out: KiNK3 h
# Procedure: [^3H]SR^142801 Competition Binding Assay
# hNK3 receptor binding experiment were performed using [^3H]SR^142801 (Catalog No. TRK1035, specific activity: 74.0 Ci/mmol, Amersham, GE Healthcare UK limited, Buckinghamshire, UK) and membrane isolated from HEK293 cells transiently expressing recombinant human NK3 receptor. After thawing, the membrane homogenates were centrifuged at 48,000×g for 10 min at 4° C., the pellets were resuspended in the 50 mM Tris-HCl, 4 mM MnCl2, 1 μM phosphoramidon, 0.1% BSA binding buffer at pH 7.4 to a final assay concentration of 5 μg protein/well. […] At the end of the incubation, membranes were filtered onto unitfilter (96-well white microplate with bonded GF/C filter preincubated 1 h in 0.3% PEI +0.3% BSA, Packard BioScience, Meriden, Conn.) with a Filtermate 196 harvester (Packard BioScience) and washed 4 times with ice-cold 50 mM Tris-HCl, pH 7.4 buffer. Nonspecific binding was measured in the presence of 10 μM SB222200 for both radioligands. The radioactivity on the filter was counted (5 min) on a Packard Top-count microplate scintillation counter with quenching correction after addition of 45 μl of microscint 40 (Canberra Packard S.A., Zutrich, Switzerland) and shaking for 1 h. Inhibition curves were fitted according to the Hill equation: y=100/(1+(x/IC50)^nH), where nH=slope factor using Excel-fit 4 software (Microsoft). IC50 values were derived from the inhibition curve and the affinity constant (Ki) values were calculated using the Cheng-Prussoff equation Ki=IC50/(1+[L]/KD) where [L] is the concentration of radioligand and KD is its dissociation constant at the receptor, derived from the saturation isotherm. All experiments were performed in duplicate and the mean ± standard error (SEM) of the individual Ki values was calculated.
row,Compound,Ki [nM]
1,"Cc1noc(-c2ccc(C(=O)N3C[C@H]([C@H](C)Oc4ccc(C#N)cn4)[C@@H](c4ccc(Cl)c(Cl)c4)C3)cc2)n1 (racemic) [Example 60, 6-((SR)-1-{(3RS,4SR)-4-(3,4-Dichloro-phenyl)-1-[4-(3-methyl-[1,2,4]oxadiazol-5-yl)-benzoyl]-pyrrolidin-3-yl}-ethoxy)-nicotinonitrile]",1.1
2,"Cc1ncc(C(=O)N2C[C@H]([C@H](C)Oc3ccc(Cl)cn3)[C@@H](c3ccc(F)c(F)c3)C2)cn1 [Example 103, [(3R,4S)-3-[(S)-1-(5-Chloro-pyridin-2-yloxy)-ethyl]-4-(3,4-difluoro-phenyl)-pyrrolidin-1-yl]-(2-methyl-pyrimidin-5-yl)-methanone]",25.7
3,"Cc1cc(C(=O)N2C[C@H]([C@H](C)Oc3ccc(Cl)cn3)[C@@H](c3ccc(F)c(F)c3)C2)c(C)nn1 [Example 113, [(3R,4S)-3-[(S)-1-(5-Chloro-pyridin-2-yloxy)-ethyl]-4-(3,4-difluoro-phenyl)-pyrrolidin-1-yl]-(3,6-dimethyl-pyridazin-4-yl)-methanone]",17.7
4,"C[C@@H](Oc1ccc(Cl)cn1)[C@@H]1CN(C(=O)c2ccc(N)nc2)C[C@H]1c1ccc(Cl)c(Cl)c1 (racemic) [Example 20, (6-Amino-pyridin-3-yl)-[(3SR,4RS)-3-[(RS)-1-(5-chloro-pyridin-2-yloxy)-ethyl]-4-(3,4-dichloro-phenyl)-pyrrolidin-1-yl]-methanone]",17
5,Cc1ncc(C(=O)N2C[C@@H]([C@@H](C)Oc3ccc(Cl)cn3)[C@@H](c3ccc(Cl)c(Cl)c3)C2)c(C)n1 (racemic) [Example 37],31.6
6,"Cc1ncc(C(=O)N2C[C@H]([C@H](C)Oc3ccc(Cl)cn3)[C@@H](c3ccc(Cl)cc3)C2)cn1 [Example 109, {(3S,4R)-3-(4-Chloro-phenyl)-4-[(S)-1-(5-chloro-pyridin-2-yloxy)-ethyl]-pyrrolidin-1-yl}-(2-methyl-pyrimidin-5-yl)-methanone]",24.1
7,"C[C@@H](Oc1ccc(C(F)(F)F)cc1)[C@@H]1CN(C(=O)c2ccc(C#N)cc2)C[C@H]1c1ccc(Cl)c(Cl)c1 (racemic) [Example 2, 4-{(3RS,4SR)-3-(3,4-Dichloro-phenyl)-4-[(RS)-1-(4-trifluoromethyl-phenoxy)-ethyl]-pyrrolidine-1-carbonyl}-benzonitrile]",35.5
8,"C[C@H](Oc1ccc(C#N)cn1)[C@H]1CN(C(=O)c2ccc(CN(C)C)nc2)C[C@@H]1c1ccc(Cl)c(Cl)c1 (racemic) [Example 43, 6-{(SR)-1-[(3RS,4SR)-4-(3,4-Dichloro-phenyl)-1-(6-dimethylaminomethyl-pyridine-3-carbonyl)-pyrrolidin-3-yl]-ethoxy}-nicotinonitrile]",24.6
9,"CSc1ncc(C(=O)N2C[C@@H]([C@@H](C)Oc3ccc(Cl)cn3)[C@H](c3ccc(Cl)c(Cl)c3)C2)cn1 (racemic) [Example 48, [(3SR,4RS)-3-[(RS)-1-(5-Chloro-pyridin-2-yloxy)-ethyl]-4-(3,4-dichloro-phenyl)-pyrrolidin-1-yl]-(2-methylsulfanyl-pyrimidin-5-yl)-methanone]",42.6
10,"C[C@@H](Oc1ccc(Cl)cn1)[C@@H]1CN(C(=O)c2ccc(CN(C)C)cc2)C[C@H]1c1ccc(Cl)c(Cl)c1 (racemic) [Example 42, [(3SR,4RS)-3-[(RS)-1-(5-Chloro-pyridin-2-yloxy)-ethyl]-4-(3,4-dichloro-phenyl)-pyrrolidin-1-yl]-(4-dimethylaminomethyl-phenyl)-methanone]",25.5
11,"COc1cc(C(=O)N2C[C@@H]([C@@H](C)Oc3ccc(Cl)cn3)[C@H](c3ccc(Cl)c(Cl)c3)C2)ccn1 (racemic) [Example 18, [(3SR,4RS)-3-[(RS)-1-(5-Chloro-pyridin-2-yloxy)-ethyl]-4-(3,4-dichloro-phenyl)-pyrrolidin-1-yl]-(2-methoxy-pyridin-4-yl)-methanone]",22.7
12,"C[C@H](Oc1ccc(C(F)(F)F)cn1)[C@H]1CN(C(=O)c2ccc(C#N)cc2)C[C@@H]1c1ccc(Cl)c(Cl)c1 (racemic) [Example 55, 4-{(3SR,4RS)-3-(3,4-Dichloro-phenyl)-4-[(SR)-1-(5-trifluoromethyl-pyridin-2-yloxy)-ethyl]-pyrrolidine-1-carbonyl}-benzonitrile]",6.5
13,"C[C@H](Oc1ccc(C#N)cn1)[C@H]1CN(C(=O)c2ccc(OCC(F)(F)F)nc2)C[C@@H]1c1ccc(Cl)c(Cl)c1 (racemic) [Example 76, 6-((SR)-1-{(3RS,4SR)-4-(3,4-Dichloro-phenyl)-1-[6-(2,2,2-trifluoro-ethoxy)-pyridine-3-carbonyl]-pyrrolidin-3-yl}-ethoxy)-nicotinonitrile]",3.5
14,"C[C@H](Oc1ccc(C(F)(F)F)cn1)[C@H]1CN(C(=O)c2ccc(-n3cccn3)nc2)C[C@@H]1c1ccc(Cl)c(Cl)c1 (racemic) [Example 80, {(3SR,4RS)-3-(3,4-Dichloro-phenyl)-4-[(SR)-1-(5-trifluoromethyl-pyridin-2-yloxy)-ethyl]-pyrrolidin-1-yl}-(6-pyrazol-1-yl-pyridin-3-yl)-methanone]",1.5
15,"C[C@H](Oc1ccc(C#N)cn1)[C@H]1CN(C(=O)c2ccc(C(F)(F)F)nc2)C[C@@H]1c1ccc(Cl)c(Cl)c1 (racemic) [Example 72, 6-{(SR)-1-[(3RS,4SR)-4-(3,4-Dichloro-phenyl)-1-(6-trifluoromethyl-pyridine-3-carbonyl)-pyrrolidin-3-yl]-ethoxy}-nicotinonitrile]",20.9
16,"Cc1nccc(C(=O)N2C[C@H]([C@H](C)Oc3ccc(C#N)cn3)[C@@H](c3ccc(Cl)c(Cl)c3)C2)n1 (racemic) [Example 95, 6-{(SR)l-1[-(3RS,4SR)-4-(3,4-Dichloro-phenyl)-1-(2-methyl-pyrimidine-4-carbonyl)-pyrrolidin-3-yl]-ethoxy}-nicotinonitrile]",52.4
17,"C[C@H](Oc1ccc(C(F)(F)F)cn1)[C@H]1CN(C(=O)c2cnc(C3CC3)nc2)C[C@@H]1c1ccc(Cl)c(Cl)c1 (racemic) [Example 85, (2-Cyclopropyl-pyrimidin-5-yl)-{(3SR,4RS)-3-(3,4-dichloro-phenyl)-4-[(SR)-1-(5-trifluoromethyl-pyridin-2-yloxy)-ethyl]-pyrrolidin-1-yl}-methanone]",7.5
18,"CCc1noc(-c2ccc(C(=O)N3C[C@H]([C@H](C)Oc4ccc(C#N)cn4)[C@@H](c4ccc(Cl)c(Cl)c4)C3)cc2)n1 (racemic) [Example 62, 6-((SR)-1-{(3RS,4SR)-4-(3,4-Dichloro-phenyl)-1-[4-(3-ethyl-[1,2,4]oxadiazol-5-yl)-benzoyl]-pyrrolidin-3-yl}-ethoxy)-nicotinonitrile]",59.4
19,"Cc1cncc(C(=O)N2C[C@H]([C@H](C)Oc3ccc(C#N)cn3)[C@@H](c3ccc(Cl)c(Cl)c3)C2)c1 (racemic) [Example 73, 6-{(SR)-1-[(3RS,4SR)-4-(3,4-Dichloro-phenyl)-1-(5-methyl-pyridine-3-carbonyl)-pyrrolidin-3-yl]-ethoxy}-nicotinonitrile]",6.8
20,"C[C@H](Oc1ccc(C#N)cn1)[C@H]1CN(C(=O)c2ccc(C#N)nc2)C[C@@H]1c1ccc(Cl)c(Cl)c1 (racemic) [Example 52, 6-{(SR)-1-[(3RS,4SR)-4-(3,4-Dichloro-phenyl)-1-(6-cyano-pyridine-3-carbonyl)-pyrrolidin-3-yl]-ethoxy}-nicotinonitrile]",5.4
21,"Cc1noc(-c2ccc(C(=O)N3C[C@H]([C@H](C)Oc4ccc(C(F)(F)F)cn4)[C@@H](c4ccc(Cl)c(Cl)c4)C3)cc2)n1 (racemic) [Example 83, {(3SR,4RS)-3-(3,4-Dichloro-phenyl)-4-[(SR)-1-(5-trifluoromethyl-pyridin-2-yloxy)-ethyl]-pyrrolidin-1-yl}-[4-(3-methyl-[1,2,4]oxadiazol-5-yl)-phenyl]-methanone]",0.6
22,CC(=O)Nc1ccc(C(=O)N2C[C@@H]([C@@H](C)Oc3ccc(Cl)cn3)[C@@H](c3ccc(Cl)c(Cl)c3)C2)cn1 (racemic) [Example 38],15.6

# Source: patent publication US8012998B2, “Pyrrolidine aryl-ether as NK-3 receptor antagonists” (Hoffmann—LA Roche Inc., priority 2007, dated 2011)
